The numbers were not newly measured in US20040039036A1, “Water-soluble liquid internal medicine” (priority 2000, published 2004), which cites them from elsewhere.

The conditions of this data set: JP-A-11-193233 injectable solution, famotidine 1 mg/mL; after preservation at 40° C. for 2 months.

As for `NC(N)=Nc1nc(CSCCC(N)=NS(N)(=O)=O)cs1` [famotidine], the residual rate is 96.6%.
